Where two headings read alike, the source gives them in different places.
What was measured:
rhesus monkeys [1] = experiment: Monkey Serial Choice Reaction Time (SCRT) task; type: in vivo; conditions: 10 mg/kg p.o.; for Next-day attention (SCRT, correct responses to shortest cues), 16 h after dosing: versus vehicle, 10 mg/kg
Text: Each SCRT trial was initiated with the appearance of 10 blue square ‘target’ images evenly distributed at 3-inch intervals around the perimeter of a touchscreen presented together with a centrally located circular ‘centering’ image (1.4 inch diameter circle). The task began with the monkey touching the centering image, which then turned gray. The monkey was then required to touch the centering image continuously throughout a variable pre-cue interval of 0.25-7.5 s. On completion of the pre-cue interval, one of the blue target images was cued by turning red for one of four cue durations before turning back to blue. To obtain a reward, the monkey was required to touch the target image that had been ‘cued’ red within a 5 s limited hold period. […] On completion of the trial, an inter-trial interval of 2 s was initiated prior to the next trial. […] If the monkey initiated a trial but removed its hand from the touchscreen prior to the appearance of the cue, the trial was terminated and the screen was blanked during a 2 s inter-trial interval. Sessions were terminated after 20 min. Cue location and duration were pseudo-randomly assigned. Cue duration and the target size were titrated for each subject on the basis of performance during previous baseline sessions to yield a performance of 60–80% correct responses for the trials of the shortest cue duration. The briefest cue duration varied from 0.04–0.1 s and the cues varied in size from 0.2–0.7 inches, although each cue had the same touch-sensitive area of 1.75 inches. Values reported in the current study reflect the proportion of correct responses to targets after cues of the shortest duration only.

rhesus monkeys [2] = conditions: sleep-promoting doses; cited from earlier work
in vivo = conditions: rhesus monkey, po, 10 mg/kg
rhesus monkeys [3] = tested on: rhesus monkeys; set-up: method as in PMID 23552372; conditions: 10 mg/kg, active-phase dosing, quantified over 2 h; cited from earlier work
rhesus monkeys [4] = experiment: Monkey Delayed Match to Sample (DMS) task; type: in vivo; conditions: 10 mg/kg p.o., versus vehicle
Text: All cognition testing occurred in the animal’s home cage equipped with a touchscreen. Each DMS trial was initiated with a single ‘sample’ image (150 × 200 pixels: 1.8 inches × 2.3 inches) in one of eight colors presented at the center of a touchscreen. Evaluation began when the monkey touched the sample image, at which point the screen became blank for a retention period. Following the retention period, four choice images (150 × 200 pixels) were presented, one in each corner of the screen. One of the four choice images matched the color of the sample image, whereas the three remaining ‘distractor’ images were drawn from the pool of remaining colors. A reinforcer was provided when the monkey touched the choice image that matched the color of the sample image. […] Test sessions comprised 96 trials or lasted for up to 45 min. […] Response latencies to sample and choice images were also recorded. Values reported reflect the proportion of correct responses collapsed over all retention intervals. Differences from vehicle were examined using repeated measures ANOVA.

[5] = rhesus monkeys, 10 mg/kg p.o.
rhesus monkeys [6] = experiment: Rhesus monkey polysomnography (active wake); type: in vivo; conditions: for Active wake late in the inactive phase and next morning (residual sleep effect): 10 mg/kg p.o. 2 h before lights out, 10 mg/kg
Procedure: Animals were fed on a calorie-controlled diet of laboratory chow supplemented with fruit and vegetables. Water was available ad libitum with the exception of those monkeys trained to perform cognitive tasks, for which access was restricted for up to 4 h prior to and during cognitive testing. Treatment occurred at 14:40 (Zeitgeber time [ZT] 10:10) in a balanced 1-day cross-over design: 1 day of drug or vehicle followed by 6 days of baseline followed by 1 day of vehicle or drug. Cognition tasks were scheduled for next-day evaluation as described below. Sleep/wake architecture was scored according to vigilance state (active wake, quiet wake, delta sleep I, delta sleep II, and REM sleep) at 30-minute intervals and analyzed as previously described. Spectral analysis of continuous EEG was quantified between vehicle and compound after binning continuous frequencies into canonical frequency bands (reported herein: Delta, 0.5 – 4 Hz; Theta, 4.0 – 7 Hz; Gamma, 35.0 – 100.0 Hz). qEEG values are spectral power (uV2) log transformed before analysis and averaged over 30-minute intervals, expressed as means +/− SEM, and compared with vehicle using a mixed-model ANOVA at each time point with random effects for subject and date within subject in the R statistical computing environment (cran.us.r-project.org; the R Foundation for Statistical Computing, Vienna, Austria) using a linear mixed effects model for significance testing.

[7] = Unbound (free) plasma fraction, dog
[8] = Suvorexant plasma levels in humans (Phase 1)
dogs = conditions: cited from earlier work
[9] = Plasma and CSF compound levels in satellite rats; conditions: rats
Procedure: Separately, the relationship between OX2R occupancy relative to plasma exposure was determined by administering DORA-12 intravenously (i.v.) over a range of doses to transgenic rats expressing human OX2R to determine a full occupancy curve over a wide range of plasma concentrations in order to define the maximal occupancy against which raw occupancy values could be normalized. This relationship was then used to determine the OX2R occupancy in PSG experiments from measured plasma concentrations.
Occupancy of human OX2R in transgenic rats expressing the receptor via the rat enolase promoter was performed ex vivo in radioligand-binding-displacement assays essentially as previously described with minor modifications. To determine the relationship between OX2R occupancy for a given compound over a full range of plasma and CSF concentrations, hOX2R-expressing rats were dosed i.v. with compound. Immediately following 30 min of i.v. administration, animals were anesthetized, sacrificed, and CSF, blood, and brain tissue were harvested and frozen for analysis. Frozen tissue was weighed and thawed coincident with homogenization. The homogenate was pelleted at 21,000 × g for 1 min and the pellet was resuspended. […] Non-specific binding was determined by the addition of 1000-fold excess unlabeled ligand. Experimental (dosed)-specific binding was compared with control (vehicle-dosed) binding ([specific total counts minus specific experimental counts]/specific total counts × 100 = percent occupancy). Raw occupancy values determined in this manner over a range of plasma and CSF values were then used to construct a normalized curve where the theoretical maximum occupancy value was defined as 100% and occupancies relative to plasma or CSF values were fit to a […] (hyperbola) curve (GraphPad Prism, San Diego, CA, USA). […] In separate experiments, plasma, CSF, and brain tissue was collected at time points following dosing to directly measure compound levels and corresponding OX2R occupancies at these times. Resulting occupancy relative to measured plasma levels of compound was fit to a normalized binding curve as described previously.

OX2R [10] = target: T1, OX2R (Homo sapiens, UniProt O43614); conditions: free + bound; cited from earlier work
T1 sequence (O43614 1-444): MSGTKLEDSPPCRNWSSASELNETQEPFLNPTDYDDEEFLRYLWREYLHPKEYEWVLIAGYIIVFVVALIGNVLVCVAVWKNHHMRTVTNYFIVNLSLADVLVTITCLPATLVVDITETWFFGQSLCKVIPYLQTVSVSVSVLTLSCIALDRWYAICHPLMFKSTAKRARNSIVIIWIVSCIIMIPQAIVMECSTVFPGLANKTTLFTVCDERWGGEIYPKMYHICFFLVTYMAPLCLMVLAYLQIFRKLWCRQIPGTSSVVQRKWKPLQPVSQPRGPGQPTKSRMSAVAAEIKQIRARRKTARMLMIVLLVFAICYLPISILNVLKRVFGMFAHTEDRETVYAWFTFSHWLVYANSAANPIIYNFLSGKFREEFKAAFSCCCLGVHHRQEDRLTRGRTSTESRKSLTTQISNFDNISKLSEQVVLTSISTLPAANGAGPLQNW

[11] = Free plasma fraction, human
[12] = Suvorexant plasma levels in satellite dogs; conditions: 1 or 3 mg/kg p.o.
Orexin 2 receptor = target: T2, Orexin 2 receptor (Homo sapiens, UniProt O43614); experiment: Orexin 2 receptor binding kinetics
T2 sequence (O43614 1-444): T1 sequence (O43614 1-444)

OX2R [13] = target: T1, OX2R; experiment: Human plasma concentration calculated for a given OX2R occupancy (from transgenic rat occupancy, free-fraction normalized); type: in vivo; conditions: free + bound; normalized for free fraction (rat 1.4%, human 1.0%)
OX2R [14] = target: T1, OX2R; experiment: OX2R occupancy, ex vivo radioligand-binding displacement in transgenic rats expressing human OX2R; set-up: from tissue; host or cells: brain homogenate of transgenic rats expressing hOX2R under the rat enolase promoter; species or system transgenic rat; conditions: rats, calculated from plasma value on normalized occupancy curve
Text: Frozen tissue was weighed and thawed coincident with homogenization.

[15] = Unbound (free) plasma fraction, rat

CN1CCN(C(=O)O[C@H]2c3nccnc3C(=O)N2c2ccc(Cl)cn2)CC1 [Eszopiclone]
Time for which effects on attention were observed (rhesus monkeys [1]): up to 16 h
Next-day attention (SCRT, correct responses to shortest cues), 16 h after dosing (rhesus monkeys [1]): significantly impair attention
Next-day attention (SCRT, correct responses to shortest cues), 16 h after dosing (rhesus monkeys [1]; listed as eszopiclone): significant deficits
Cognitive assessment in DMS and SCRT tasks within 2 h following treatment (rhesus monkeys [2]): substantial deficits
Cmax (in vivo): 1680 nM
concentration at 17 h (in vivo): 535 nM
Attenuation of active wake relative to vehicle (rhesus monkeys [3]): 55.0 min
Next-day recognition memory (DMS), 14 h after dosing (rhesus monkeys [4]): did not demonstrate next-day sleep effects or memory impairment
Next-day recognition memory (DMS), 14 h after dosing (rhesus monkeys [4]; listed as eszopiclone): not
Time of plasma Cmax [5]: 0.5 h
Time for which reductions in active wake were detectable (rhesus monkeys [6]; 10 mg/kg p.o.): up to 6 h
Active wake late in the inactive phase and next morning (residual sleep effect) (rhesus monkeys [6]): did not demonstrate next-day sleep effects
Active wake late in the inactive phase and next morning (residual sleep effect) (rhesus monkeys [6]; listed as eszopiclone): no consistent attenuation of active wake

Cc1ccc(-n2nccn2)c(C(=O)N2CCN(c3nc4cc(Cl)ccc4o3)CC[C@H]2C)c1 [Suvorexant, [(7R)-4-(5-chloro-1,3-benzoxazol-2-yl)-7-methyl-1,4-diazepan-1-yl][5-methyl-2-(2H-1,2,3-triazol-2-yl)phenyl]methanone]
fraction unbound [7]: 0.01
Tmax ([8]; human, in vivo): ≤ 3 h
half-life ([8]; human, in vivo): > 8 h
Post-dose time by which mean plasma concentrations fell below level for 65% OX2R occupancy ([8]; humans, 10 and 20 mg doses): ≤ 8 h
Duration of effects on active wake (dogs; 1 mg/kg): up to 4 h
Duration of effects on active wake (dogs; 3 mg/kg): up to 7.5 h
Plasma ([9]; dose 10 mg/kg): 1600.0 nM
Plasma ([9]; dose 30 mg/kg): 2100.0 nM
Plasma ([9]; dose 100 mg/kg): 5100.0 nM
Plasma level calculated to correspond to 80% OX2R occupancy in humans (OX2R [10]): 0.71 µM
fraction unbound [11]: 0.01
Plasma concentration at time points when efficacy was observed [12]: > 342 nM
Plasma exposure corresponding to efficacy [12]: > 342 nM
T1/2 OFF (half-life off-rates) (Orexin 2 receptor): 1.49 h
T1/2 ON (binding half-life) (Orexin 2 receptor; almorexant applied 3-fold above its Kd (value an underestimate)): 1.34 h
Human plasma concentration calculated to correspond to 65% OX2R occupancy (OX2R [13]): 0.33 µM
OX2R Occ (% max) (OX2R [14]; dose 10 mg/kg): 92.6 % max
OX2R Occ (% max) (OX2R [14]; dose 30 mg/kg): 94.3 % max
OX2R Occ (% max) (OX2R [14]; dose 100 mg/kg): 97.6 % max
fraction unbound [15]: 0.014

— publication PMC3765993, “The duration of sleep promoting efficacy by dual orexin receptor antagonists is dependent upon receptor occupancy threshold” (BMC Neuroscience, 2013)
